In US20150105252A1, “SUBSTITUTED PYRAZOLES AS HERBICIDES” (E I DU PONT DE NEMOURS AND COMPANY, priority 2013, published 2015):

Assays:
blackgrass = assay: Test C preemergence; type: in vivo, Alopecurus myosuroides; details: preemergence
Method in brief: (§1)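 Postemergence values come from plants sprayed at the 1- to 4-leaf stage (2–18 cm) in peat moss–vermiculite medium; preemergence values from seeds treated in a loam–sand blend. Both evaluated visually against controls after 13–15 greenhouse days, scale 0–100.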

crabgrass, large [1] = assay: Test C postemergence; type: in vivo, Digitaria sanguinalis
Method in brief: as §1

velvetleaf = assay: Test C postemergence; type: in vivo, Abutilon theophrasti; details: postemergence
Method in brief: as §1

crabgrass, large [2] = assay: Test C preemergence; type: in vivo, Digitaria sanguinalis
Method in brief: as §1

oilseed rape [3] = assay: Test C postemergence; type: in vivo, Brassica napus; details: postemergence
Method in brief: as §1

oilseed rape [4] = assay: Test C preemergence; type: in vivo, Brassica napus
Method in brief: as §1

waterhemp = assay: Test C postemergence; type: in vivo, Amaranthus rudis; details: postemergence
Method in brief: as §1

foxtail, giant = assay: Test A postemergence; type: in vivo, Setaria faberii; details: Postemergence
Method in brief: (§2)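 After sowing in a sand–loam mix, pots received compound preemergence by directed soil spray, or postemergence once plants reached the one- to two-leaf stage (2–10 cm). Formulation contained surfactant in a non-phytotoxic solvent. Injury was scored visually after ~10 greenhouse days, 0–100 scale.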

morningglory [5] = assay: Test A postemergence; type: in vivo, Ipomoea spp.; details: Postemergence
Method in brief: as §2

morningglory [6] = assay: Test C preemergence; type: in vivo, Ipomoea coccinea
Method in brief: as §1

ducksalad = assay: Test B flood; type: in vivo, Heteranthera limosa; details: 250 g ai/ha, visual rating on 0 to 100 scale (0 no effect, 100 complete control), 13 to 15 days
Method in brief: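 Paddy-water application: seedlings at 2-leaf stage, flood depth 3 cm maintained for the test duration. Evaluation after 13–15 days in the greenhouse by eye relative to controls; 0–100 scale.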

johnsongrass = assay: Test C preemergence; type: in vivo, Sorghum halepense
Method in brief: as §1

soybean = assay: Test C postemergence; type: in vivo, Glycine max; details: postemergence
Method in brief: as §1

[7] = 250 g ai/ha, scale 0 to 100 (0 no effect, 100 complete control)
[8] = Preemergence, rate head not shown (block before 16 g ai/ha), scale 0 to 100
[9] = preemergence, 62 g ai/ha, scale 0 to 100 (0 no effect, 100 complete control), 13 to 15 days
[10] = preemergence, 125 g ai/ha, 13 to 15 days, scale 0 to 100, 0 = no effect, 100 = complete control
[11] = preemergence, 250 g ai/ha, scale 0 to 100, 0 is no effect, 100 is complete control
[12] = 125 g ai/ha, scale 0 to 100, 0 no effect, 100 complete control
[13] = 125 g ai/ha, 0 to 100 scale, 0 no effect, 100 complete control
[14] = 500 g ai/ha, 0 to 100 scale (0 no effect, 100 complete control)

Compound: CCc1cc(C(=O)NC2CC2)nn1Cc1ccnc(Br)c1 [Compound 220]
- Blackgrass plant response rating (blackgrass; 31 g ai/ha, visual rating, scale 0 to 100 (0 no effect, 100 complete control), 13 to 15 days): 0
- Blackgrass plant response rating (blackgrass; 62 g ai/ha, scale 0 to 100 (0 no effect, 100 complete control), 13 to 15 days): 0
- Plant response rating, Blackgrass (blackgrass; 125 g ai/ha, 13 to 15 days, scale 0 to 100, 0 = no effect, 100 = complete control): 40
- Blackgrass plant response rating (blackgrass; 250 g ai/ha, scale 0 to 100, 0 is no effect, 100 is complete control): 70
- Plant response rating (scale of 0 to 100 where 0 is no effect and 100 is complete control), Crabgrass, Large (crabgrass, large [1]; Postemergence, 31 g ai/ha, visually evaluated after 13 to 15 days): 5
- Crabgrass, Large plant response rating (crabgrass, large [1]; postemergence, 62 g ai/ha, scale 0 to 100): 5
- Plant response rating, Crabgrass, Large (crabgrass, large [1]; postemergence, 250 g ai/ha, scale 0 to 100 (0 no effect, 100 complete control)): 10
- Plant response rating, Crabgrass, Large (crabgrass, large [1]; postemergence, 125 g ai/ha, scale 0 to 100, 0 no effect, 100 complete control): 5
- Plant response rating, Velvetleaf (velvetleaf; [7]): 40
- Velvetleaf plant response rating (velvetleaf; scale 0 to 100): 45
- Plant response rating, Crabgrass, Large (crabgrass, large [2]; [8]): 95
- Crabgrass, Large plant response rating (crabgrass, large [2]; [9]): 100
- Plant response rating, Crabgrass, Large (crabgrass, large [2]; [10]): 100
- Crabgrass, Large plant response rating (crabgrass, large [2]; [11]): 100
- Oilseed Rape plant response rating (oilseed rape [3]; 62 g ai/ha, scale 0 to 100): 5
- Plant response rating, Oilseed Rape (oilseed rape [3]; [7]): 40
- Plant response rating, Oilseed Rape (oilseed rape [3]; [12]): 30
- Plant response rating, Oilseed Rape (oilseed rape [4]; [8]): 80
- Oilseed Rape plant response rating (oilseed rape [4]; [9]): 30
- Plant response rating, Oilseed Rape (oilseed rape [4]; [10]): 85
- Oilseed Rape plant response rating (oilseed rape [4]; [11]): 95
- Plant response rating, Waterhemp (waterhemp; [7]): 45
- Waterhemp plant response rating (waterhemp; scale 0 to 100): 45
- Foxtail, Giant plant response rating (foxtail, giant; [13]): 90
- Foxtail, Giant plant response rating (foxtail, giant; [14]): 100
- Morningglory plant response rating (morningglory [5]; [13]): 50
- Morningglory plant response rating (morningglory [5]; [14]): 100
- Plant response rating, Morningglory (morningglory [6]; [8]): 0
- Morningglory plant response rating (morningglory [6]; [9]): 5
- Plant response rating, Morningglory (morningglory [6]; [10]): 65
- Morningglory plant response rating (morningglory [6]; [11]): 75
- Plant response rating, Ducksalad (ducksalad): 65
- Plant response rating, Johnsongrass (johnsongrass; [8]): 10
- Johnsongrass plant response rating (johnsongrass; [9]): 5
- Plant response rating, Johnsongrass (johnsongrass; [10]): 5
- Johnsongrass plant response rating (johnsongrass; [11]): 80
- Plant response rating, Soybean (soybean; [7]): 75
- Soybean plant response rating (soybean; [12]): 30
